Key:
[1] = Caco-2 permeability (bi-directional); assay type: in vitro ADME; settings: human, Caco-2; A2B, 10 µM, 120 min
Experimental: Physicochemical and ADMET properties of representative glycomimetics. […]
ymax = mean vehicle control response
Caco-2 Permeability (A-B or Bi-directional)
Caco-2 cells (ATCC, Virginia, USA) are used between passage numbers 40-60. Cells are seeded onto Millipore Multiscreen Transwell plates at 1 x 10^5 cells/cm2. The cells are cultured in DMEM and media is changed every two or three days. On day 20 the permeability study is performed. Cell culture and assay incubations are carried out at 37 °C in an atmosphere of 5 % CO2 with a relative humidity of 95%. On the day of the assay, the monolayers are prepared by rinsing both apical and basolateral surfaces twice with Hanks Balanced Salt Solution (HBSS) at the desired pH warmed to 37 °C. Cells are then incubated with HBSS at the desired pH in both apical and basolateral compartments for 40 min to stabilise physiological […]
The dosing solutions are prepared by diluting test compound with assay buffer to give a final test compound concentration of 10 µM (final DMSO concentration of 1 % v/v). The fluorescent integrity marker lucifer yellow is also included in the dosing solution. Analytical standards are prepared from test compound DMSO dilutions and transferred to buffer, maintaining a 1% v/v DMSO concentration. Typical assay buffer is composed of supplemented HBSS pH 7.4 but a range of other buffers and pH values can be used.
For assessment of A-B permeability, HBSS is removed from the apical compartment and replaced with test compound dosing solution. The apical compartment insert is then placed into a companion plate containing fresh buffer (containing 1 % v/v DMSO). For assessment of B-A permeability, HBSS is removed from the companion plate and replaced with test compound dosing solution. Fresh buffer (containing 1 % v/v DMSO) is added to the apical compartment insert, which is then placed into the companion plate.
At 120 min the apical compartment inserts and the companion plates are separated and apical and basolateral samples diluted for analysis. Test compound permeability is assessed in duplicate. Compounds of known permeability characteristics are run as controls on each assay plate. Test and control compounds are quantified by LC-MS/MS cassette analysis using an 8-point calibration with appropriate dilution of the samples. The starting concentration (C0) is determined from the dosing solution and the experimental recovery calculated from C0 and both apical and basolateral compartment concentrations.
The integrity of the monolayer throughout the experiment is checked by monitoring lucifer yellow permeation using fluorimetric analysis. Lucifer yellow permeation is high if monolayers have been damaged. If a lucifer yellow Papp value is above a pre-defined threshold in one individual test compound well, the compound may be re-tested or an n = 1 result is reported.
If lucifer yellow Papp values are above the threshold in both replicate wells for a test compound, the compound is re-tested. If this re-occurs upon repeat in both wells then toxicity or inherent fluorescence of the test compound is assumed.
The permeability coefficient (Papp) for each compound is calculated from the following […]
Where dQ/dt is the rate of permeation of the drug across the cells, C0 is the donor compartment concentration at time zero and A is the area of the cell monolayer. C0 is obtained from analysis […]
For bi-directional experiments, an efflux ratio (ER) is calculated from mean A-B and B-A data.
Three control compounds are screened alongside the test compounds, atenolol (human absorption 50%), propranolol (human absorption 90%) and talinolol (a substrate for […]

in vitro = settings: mouse, microsomes, pH 7.4
Experimental: MLM assay (controls: diphenhydramine and diazepam). hERG assay (controls: quinidine and dimethylsulfoxide).
Microsomal Metabolic Stability
Pooled liver microsomes (final protein concentration 0.5 mg/mL), 0.1 M phosphate buffer pH
7.4 and test compound (final substrate concentration 3 µM; final DMSO concentration 0.25 %)
are pre-incubated at 37 °C prior to the addition of NADPH (final concentration 1 mM) to initiate
the reaction. The final incubation volume is 50 µL. A minus cofactor control incubation is
included for each compound tested where 0.1 M phosphate buffer pH 7.4 is added instead of
NADPH (minus NADPH). Two control compounds are included with each species. All incubations are performed singularly for each test compound. Each compound is incubated for 0, 5, 15, 30 and 45 min. The control (minus NADPH) is incubated for 45 min. The reactions
are stopped by transferring 20 µL of incubate to 60 µL methanol at the appropriate time points.
The termination plates are centrifuged at 2,500 rpm for 20 min at 4 °C to precipitate the protein.
Following protein precipitation, the sample supernatants are combined in cassettes of up to 4
compounds, internal standard is added and samples analysed using Cyprotex generic
LC-MS/MS conditions. From a plot of ln peak area ratio (compound peak area /internal
standard peak area) against time, the gradient of the line is determined. Subsequently, half-
life and intrinsic clearance are calculated using the equations below:
Elimination rate constant (k) = (- gradient)
Intrinsic clearance (CLint)(µL/min/mg protein) = where V = Incubation volume (µL)/Microsomal protein (mg)
Relevant control compounds are assessed, ensuring intrinsic clearance values fall within the
specified limits (if available).

Row | Compound | Papp A→B at 2 h, 10 µM [1] [×10⁻⁶ cm/s] | half-life at 0.75 h, 3 µM (in vitro) [h]
1 | COC(=O)c1cc(OC[C@H](COS(=O)(=O)[O-])OS(=O)(=O)[O-])ccc1OCCCCOS(=O)(=O)[O-].[Na+].[Na+].[Na+] [Compound R-10, sodium (R)-3-(3-(methoxycarbonyl)-4-(4-(sulfonatooxy)butoxy)phenoxy)propane-1,2-diyl bis(sulfate)] | 0.931 | 
2 | COC(=O)c1cc(OC[C@@H](COS(=O)(=O)[O-])OS(=O)(=O)[O-])ccc1OCCCCOS(=O)(=O)[O-].[Na+].[Na+].[Na+] [Compound S-10, sodium (S)-3-(3-(methoxycarbonyl)-4-(4-(sulfonatooxy)butoxy)phenoxy)propane-1,2-diyl bis(sulfate)] |  | 69.3

Source: PMC8152814, “The modulatory role of sulfated and non-sulfated small molecule heparan sulfate-glycomimetics in endothelial dysfunction: absolute structural clarification, molecular docking and simulated dynamics, SAR analyses and ADMET studies” (RSC Medicinal Chemistry, 2021)
